Measured values as given in ChEMBL document CHEMBL1149084, “Synthesis and evaluation of 2-pyridyl pyrimidines with in vitro antiplasmodial and antileishmanial activity” (Bioorg Med Chem Lett, 2009).

Columns and labels:
L6 = assay: Cytotoxicity against rat L6 cells; type: ADME, cell-based
Leishmania donovani = assay: Antileishmanial activity against Leishmania donovani; type: functional, organism-based
Plasmodium falciparum [1] = assay: Antiplasmodial activity against chloroquine-resistant Plasmodium falciparum K1; type: functional, organism-based
[2] = Inhibition of GST-tagged Plasmodium falciparum MetAP 1B by […]
Plasmodium falciparum [3] = assay: Antimalarial activity against chloroquine-resistant Plasmodium falciparum Dd2 after 24 hrs by [3H]hypoxanthine uptake; type: functional, organism-based
[4] = Selectivity ratio of IC50 for rat L6 cells to IC50 for Leishmania donovani

| SMILES | IC50 (L6) | IC50 (Leishmania donovani) | IC50 (Plasmodium falciparum [1]) | IC50 [2] | IC50 (Plasmodium falciparum [3]) | selectivity ratio [4] |
| --- | --- | --- | --- | --- | --- | --- |
| Cc1nc(-c2ccccn2)nc(NCCCc2ccccc2)c1Cl | 73.5 µM | 0.48 µM | 1.9 µM |  |  |  |
| Cc1nc(-c2ccccn2)nc(NCCc2cccc(Cl)c2)c1Cl | 32.6 µM | 0.44 µM | 2.5 µM |  |  |  |
| Cc1nc(-c2ccccn2)nc(NCCc2ccc(S(C)(=O)=O)cc2)c1Cl | 104 µM | 7.4 µM | 8.2 µM |  |  |  |
| Cc1nc(-c2ccccn2)nc(NCCc2ccccc2)c1Cl | 25.5 µM | 0.5 µM | 9.8 µM | 0.11 µM | 3.1 µM |  |
| Cc1nc(-c2ccccn2)nc(NCC2CCCCC2)c1Cl | 42.4 µM | 0.31 µM | 2.4 µM |  |  |  |
| Cc1nc(-c2ccccn2)nc(N2CCC(Cc3ccccc3)C2)c1Cl (stereo unspecified) | 88 µM | 0.38 µM | 3.1 µM |  |  |  |
| Cc1nc(-c2ccccn2)nc(N(C)CCc2ccccc2)c1Cl | 62.5 µM | 0.32 µM | 3.5 µM |  |  |  |
| Cc1nc(-c2ccccn2)nc(NCCNc2cc(C(F)(F)F)ccn2)c1Cl | 5.2 µM | 0.28 µM | 2.74 µM |  |  |  |
| Cc1cc(NCCc2ccccc2)nc(-c2ccccn2)n1 | 18.3 µM | 3 µM | 3.7 µM |  |  |  |
| CCN(CC)CCCC(C)Nc1ccnc2cc(Cl)ccc12 (stereo unspecified) [CHLOROQUINE] | 70.1 µM |  |  |  |  |  |
| Cc1nc(-c2ccccn2)nc(NCC2CCOC2)c1Cl (stereo unspecified) | 125 µM | 10.5 µM | 15.3 µM |  |  |  |
| Cc1nc(-c2ccccn2)nc(NCCS(=O)(=O)c2ccccc2)c1Cl | 72.8 µM | 11.4 µM | 10.4 µM |  |  |  |
| Cc1nc(-c2ccccn2)nc(N2CCN(CCO)CC2)c1Cl | 270 µM | 156 µM | 7.5 µM |  |  |  |
| Cc1nc(-c2ccccn2)nc(NCc2ccccc2)c1Cl | 70.1 µM | 0.47 µM | 3.2 µM |  |  |  |
| Cc1nc(-c2ccccn2)nc(NCc2ccc(S(C)(=O)=O)cc2)c1Cl | 93.6 µM | 10.7 µM | 10.1 µM |  |  |  |
| CCCCCCCCCCCCCCCCOP(=O)([O-])OCC[N+](C)(C)C [MILTEFOSINE] |  | 0.7 µM |  |  |  |  |

| SMILES | IC50 (L6) | IC50 (Leishmania donovani) | IC50 (Plasmodium falciparum [1]) | IC50 [2] | IC50 (Plasmodium falciparum [3]) | selectivity ratio [4] |
| --- | --- | --- | --- | --- | --- | --- |
| Cc1nc(-c2ccccn2)nc(NCCc2ccc(Cl)cc2)c1Cl | 40.4 µM | 0.45 µM | 2 µM |  |  |  |
| Cc1nc(-c2ccccn2)nc(N2CCC(c3ccccc3)CC2)c1Cl | 183 µM | 1.1 µM | 8.9 µM |  |  |  |
| Cc1nc(-c2ccccn2)nc(N)c1Cl | 85.3 µM | 3.3 µM | 20.8 µM |  |  | > 10 |
| Cc1nc(-c2ccccn2)nc(N2CCN(S(=O)(=O)c3ccccc3)CC2)c1Cl | 210 µM | 54.4 µM | 11.6 µM |  |  |  |
| FC(F)(F)c1cc(NCCc2ccccc2)nc(-c2ccccn2)n1 | 74.2 µM | 2 µM | 8.2 µM |  |  |  |
| Cc1nc(-c2ccccn2)nc(NC2Cc3ccccc3C2)c1Cl | 33.2 µM | 0.42 µM | 3.7 µM |  |  |  |
| C[C@@H]1CC[C@H]2[C@@H](C)C(=O)O[C@@H]3O[C@@]4(C)CC[C@@H]1[C@]32OO4 [ARTEMISININ] | > 170 µM |  | 0.005 µM |  |  |  |
| Cc1nc(-c2ccccn2)nc(N2CCCC2c2ccccc2)c1Cl (stereo unspecified) | 76.5 µM | 0.7 µM | 4.1 µM |  |  |  |
| Cc1nc(-c2ccccn2)nc(N2CCC(c3ccccc3)C2)c1Cl (stereo unspecified) | 133 µM | 0.39 µM | 4.7 µM |  |  |  |
| COc1ccc(CCNc2nc(-c3ccccn3)nc(C)c2Cl)cc1 | 8.7 µM | 0.43 µM | 2.5 µM |  |  |  |
| Cc1nc(-c2ccccn2)nc(N(C)C)c1Cl | 115 µM | 1.1 µM | 15.1 µM |  |  | > 10 |
| Cc1nc(-c2ccccn2)nc(NCCC2CCCCC2)c1Cl | 49.5 µM | 0.26 µM | 2.3 µM |  |  |  |
| Cc1nc(-c2ccccn2)nc(NCCc2ccncc2)c1Cl | 110 µM | 14.1 µM | 9.5 µM |  |  |  |
| CCN(CC)c1nc(-c2ccccn2)nc(C)c1Cl | 148 µM | 1.22 µM | 9 µM |  |  | > 10 |
| Cc1nc(-c2ccccn2)nc(NCCc2ccccc2Cl)c1Cl | 91.6 µM | 1.2 µM | 6.3 µM |  |  |  |
| Cc1nc(-c2ccccn2)nc(N2CCCC2Cc2ccccc2)c1Cl (stereo unspecified) | 92.3 µM | 0.63 µM | 4.3 µM |  |  |  |
